The values below come from DBAASP.

Values after ≈ are worked out from the molar mass of the structure shown. Where only a bound is given, the exact number is not on record here.

Test in all cases: ≥ marks a high value that may be exact or a test limit, other limits are often not marked, values filed in µg/mL are converted to µM
The test system of experiment [1] is Staphylococcus aureus ATCC 29213.
Experiment [2] deals with Staphylococcus aureus ATCC 700699.
In experiment [3] the test system is Pseudomonas aeruginosa ATCC BAA-427.
The test system of experiment [4] is Candida parapsilosis ATCC 22019.
Experiment [5] has as its system Cryptococcus neoformans.
In experiment [6] the test system is Bacillus subtilis ATCC 6633.
Experiment [7] deals with Staphylococcus aureus ATCC 33592.
Experiment [8] has as its system Staphylococcus aureus ATCC BAA-44.
In experiment [9] the test system is Klebsiella pneumoniae ATCC 27736.
The subject of experiment [10] is Escherichia coli ATCC 9637.
Experiment [11] deals with Sporothrix schenckii.
Experiment [12] has as its system Staphylococcus aureus ATCC 25923.
Experiment [13] deals with Staphylococcus aureus ATCC 700698.
Experiment [14] deals with Candida albicans ATCC 10231.
Experiment [15] relates to Salmonella enterica subsp. enterica serovar Typhimurium ATCC 14028.
Experiment [16] concerns Escherichia coli ATCC 11775.
The subject of experiment [17] is Escherichia coli ATCC 35218.
Experiment [18] has as its system Salmonella enterica subsp. enterica serovar Typhi Vi+.
The subject of experiment [19] is Escherichia coli ATCC 25922.
The subject of experiment [20] is Staphylococcus aureus CPCC 100520.
The subject of experiment [21] is Escherichia coli CPCC 100521.
Experiment [22] relates to Candida albicans CPCC 400416.

For orientation: MIC means the lowest concentration that inhibits growth of the organism. The low end stands for greater potency, the high end for weaker potency.

On to `CC[C@H](C)[C@H](NC(=O)[C@H](C)NC(=O)[C@H](CCCCN)NC(=O)[C@@H]1CCCN1C(=O)[C@H](C)NC(=O)[C@H](Cc1cnc[nH]1)NC(=O)[C@@H](NC(=O)[C@H](C)NC(=O)CNC(=O)[C@H](CCCCN)NC(=O)[C@@H](NC(=O)[C@H](CC(C)C)NC(=O)[C@H](Cc1c[nH]c2ccccc12)NC(=O)CNC(=O)[C@H](Cc1ccccc1)NC(=O)[C@@H](N)Cc1ccccc1)[C@@H](C)CC)[C@@H](C)CC)C(=O)N[C@@H](Cc1cnc[nH]1)C(=O)NCC(=O)N[C@@H](CC(C)C)C(=O)N[C@H](C(=O)N[C@@H](Cc1cnc[nH]1)C(=O)N[C@@H](CCCN=C(N)N)C(=O)N[C@@H](CCCN=C(N)N)C(=O)N[C@@H](CCCN=C(N)N)C(=O)N[C@@H](Cc1cnc[nH]1)C(=O)O)[C@@H](C)CC` [FFGWLIKGAIHAPKAIHGLIHRRRH], for which the minimum inhibitory concentration (MIC) stood at 1.6 µM (≈ 4.69 µg/mL) in [1]; 1.6 µM (≈ 4.69 µg/mL) in experiment [2]; 6.8 µM (≈ 19.9 µg/mL) in experiment [3]; 6.8 µM (≈ 19.9 µg/mL) in [4]; 13.6 µM (≈ 39.9 µg/mL) in [5]; 3 µM (≈ 8.8 µg/mL) in [6]. The MIC in [7] came out at 1.6 µM (≈ 4.69 µg/mL); in experiment [8], 1.6 µM (≈ 4.69 µg/mL); in [9], 6.8 µM (≈ 19.9 µg/mL); in experiment [10] it was 3 µM (≈ 8.8 µg/mL); in [11], 27.2 µM (≈ 79.8 µg/mL); in [12], 3 µM (≈ 8.8 µg/mL). Also, the MIC stood at 3 µM (≈ 8.8 µg/mL) in experiment [13] and 13.6 µM (≈ 39.9 µg/mL) in [14].

Consider `CC[C@H](C)[C@H](NC(=O)[C@@H]1CCCN1C(=O)[C@H](CCCN=C(N)N)NC(=O)[C@@H]1CCCN1C(=O)[C@H](Cc1cnc[nH]1)NC(=O)[C@H](CO)NC(=O)[C@@H](NC(=O)[C@@H]1CCCN1C(=O)[C@H](CCCCN)NC(=O)[C@@H]1CCCN1C(=O)[C@H](CO)NC(=O)[C@H](Cc1ccc(O)cc1)NC(=O)[C@@H]1CCCN1C(=O)[C@H](CCCN=C(N)N)NC(=O)[C@@H]1CCCN1C(=O)[C@H](CCCCN)NC(=O)CN)[C@@H](C)O)C(=O)N[C@@H](CCCN=C(N)N)C(=O)N[C@H](C(=O)O)C(C)C` [GKPRPYSPKPTSHPRPIRV], for which the MIC was determined as 10 µM (≈ 21.7 µg/mL) in experiment [15]; 3 µM (≈ 6.51 µg/mL) in experiment [16]; 2 µM (≈ 4.34 µg/mL) in experiment [17]; 10 µM (≈ 21.7 µg/mL) in [18]; 3.5 µM (≈ 7.6 µg/mL) in experiment [19].

`CC[C@H](C)[C@H](N)C(=O)N[C@H](C(=O)NCC(=O)N1CCC[C@H]1C(=O)N[C@H](C(=O)N[C@@H](CC(C)C)C(=O)NCC(=O)N[C@@H](CC(C)C)C(=O)N[C@H](C(=O)NCC(=O)N[C@@H](CCCCN)C(=O)N[C@@H](C)C(=O)N[C@@H](CC(C)C)C(=O)NCC(=O)NCC(=O)N[C@@H](CC(C)C)C(=O)N[C@@H](CC(C)C)C(N)=O)C(C)C)C(C)C)[C@@H](C)CC` [IIGPVLGLVGKALGGLL]: the MIC in [20], in experiment [21] and in experiment [22] was at least 161 µM each time.
